Results on three compounds are retold here after US20170052170A1, “NOVEL CELL LINES AND METHODS” (priority 2009, published 2017).

Bridge positions count the residues as written; N and C are the ends. Peptide text beside a SMILES is read from it.

Assay [1] addresses T1, human GC-C (Homo sapiens, UniProt P25092, F281L). The settings on record: Forte et al. 1999; cited from earlier work.
The target in assay [2] is T1, human GC-C. As to the kind of experiment: cGMP competitive ELISA / Direct Cyclic GMP Enzyme Immunoassay, GC-C-expressing 293T cell line. The arrangement: expressed in transfected cells; host or cells: 293T. The format is cell-based. The method, then: Populations of cells were tested using functional criteria. The Direct Cyclic GMP Enzyme Immunoassay Kit (Cat. 900-014; AssayDesigns, Inc.) was used according to manufacturer's instructions: (http://www.assaydesigns.com/objects/catalog//product/extras/900-014.pdf). Cells were tested at 4 different densities in 96- or 384-well plates and responses were analyzed. The following conditions were used for the GC-C-expressing cell lines of the invention: • Clone screening: 1:2 and 1:3 splits of confluent 96-well plates 48 hour prior to assay, 30 minutes guanylin treatment. • Dose-response studies: densities of 20,000, 40,000, 60,000, 80,000, 120,000 and 160,000 per well, 30 minutes guanylin treatment (see Example 8). • Z′ studies: densities of 160,000 and 200,000 per well were used, 30 minutes guanylin treatment (see Example 9).
A competitive ELISA for detection of cGMP was used to characterize native GC-C function in the produced GC-C-expressing cell line. Cells expressing GC-C were maintained under standard cell culture conditions in Dulbecco's Modified Eagles medium (DMEM) supplemented with 10% fetal bovine serum, glutamine and HEPES and grown in T175 cm flasks. For the ELISA, the cells were plated into coated 96-well plates (poly-D-lysine).
Cells were washed twice with serum-free medium and incubated with 1 mM IBMX for 30 minutes. Desired activators (i.e., guanylin, 0.001-40 μM) were then added to the cells and incubated for 30-40 minutes. Supernatant was removed, and the cells were washed with TBS buffer. […]. This was followed by lysis with 0.1N HCl and a freeze/thaw cycle at −20° C./room temperature. […]
All of the following steps were performed at room temperature, unless otherwise indicated. […] The absorbance was then read at 405 nm on a SAFIRE^2™ plate reader (Tecan). […]
Z′ for the produced GC-C-expressing cell line was calculated using a direct competitive ELISA assay. […] Absorbance (corresponding to cGMP levels) in the two conditions was monitored using a SAFIRE^2™ plate reader (Tecan). […]

Another assay concerns human CFTR. As to the kind of experiment: Fluorescence membrane potential assay, CHO cell lines stably expressing CFTR. The format is cell-based. The conditions noted are these: 15,000 cells/well, 384-well plate; read-out: EC50 (cell fluorescence response). The method, then: CHO cell lines stably expressing CFTR were maintained under standard cell culture conditions in Ham's F12 medium supplemented with 10% fetal bovine serum and glutamine. On the day before assay, the cells were harvested from stock plates and plated into black clear-bottom 384 well assay plates. The assay plates were maintained in a 37° C. cell culture incubator under 5% CO2 for 22-24 hours. The media was then removed from the assay plates and blue membrane potential dye (Molecular Devices Inc.) diluted in loading buffer (137 mM NaCl, 5 mM KCl, 1.25 mM CaCl2, 25 mM HEPES, 10 mM glucose) was added and allowed to incubate for 1 hour at 37° C. […] The cellular response as a function of changes in cell fluorescence was monitored over time by a fluorescent plate reader (Hamamatsu FDSS). […] Z' value for the produced stable CFTR-expressing cell line was calculated using a high-throughput compatible fluorescence membrane potential assay. The fluorescence membrane potential assay protocol was performed substantially according to the protocol in Example 12. […] Cell responses in the two conditions were monitored using a fluorescent plate reader (Hamamatsu FDSS). Mean and standard deviations in the two conditions were calculated and Z' was computed using the method disclosed in Zhang et al., J Biomol Screen, 4(2): 67-73, (1999). […]

The test system of assay [3] is human bitter receptor-Gα15 cell lines. As to the kind of experiment: isoproterenol dose response (intracellular free calcium) in human bitter receptor-Gα15 cell lines. It is filed as cell-based. The conditions noted are these: change in intracellular free calcium, read-out: EC50 in a dose response curve conducted with the cell or cell line. An excerpt: In some embodiments, the bitter receptor is a functional bitter receptor. In some embodiments, the cell or cell line has a change in the concentration of intracellular free calcium when contacted with isoproterenol. […] In some embodiments, the cell or cell line has a signal to noise ratio of greater than 1.
According to yet another aspect of the present invention, a method of identifying a modulator of a bitter receptor function comprises: a) exposing a cell or cell line that stably expresses a bitter receptor to a test compound; and b) detecting a change in a function of the bitter receptor. In some embodiments, the detecting utilizes an assay that measures intracellular free calcium. In some embodiments, the intracellular free calcium is measured using one or more calcium-sensitive fluorescent dyes, a fluorescence microscope, and optionally a fluorescent plate reader, wherein at least one fluorescent dye binds free calcium. In some other embodiments, the intracellular free calcium is monitored by real-time imaging using one or more calcium-sensitive fluorescent dyes, wherein at least one fluorescent dye binds free calcium.
FIG. 16 is a graph showing dose response curves of relative responses to isoproterenol in 25 human bitter receptor-Gα15 cell lines.

T1 sequence (P25092 24-1073 F281L): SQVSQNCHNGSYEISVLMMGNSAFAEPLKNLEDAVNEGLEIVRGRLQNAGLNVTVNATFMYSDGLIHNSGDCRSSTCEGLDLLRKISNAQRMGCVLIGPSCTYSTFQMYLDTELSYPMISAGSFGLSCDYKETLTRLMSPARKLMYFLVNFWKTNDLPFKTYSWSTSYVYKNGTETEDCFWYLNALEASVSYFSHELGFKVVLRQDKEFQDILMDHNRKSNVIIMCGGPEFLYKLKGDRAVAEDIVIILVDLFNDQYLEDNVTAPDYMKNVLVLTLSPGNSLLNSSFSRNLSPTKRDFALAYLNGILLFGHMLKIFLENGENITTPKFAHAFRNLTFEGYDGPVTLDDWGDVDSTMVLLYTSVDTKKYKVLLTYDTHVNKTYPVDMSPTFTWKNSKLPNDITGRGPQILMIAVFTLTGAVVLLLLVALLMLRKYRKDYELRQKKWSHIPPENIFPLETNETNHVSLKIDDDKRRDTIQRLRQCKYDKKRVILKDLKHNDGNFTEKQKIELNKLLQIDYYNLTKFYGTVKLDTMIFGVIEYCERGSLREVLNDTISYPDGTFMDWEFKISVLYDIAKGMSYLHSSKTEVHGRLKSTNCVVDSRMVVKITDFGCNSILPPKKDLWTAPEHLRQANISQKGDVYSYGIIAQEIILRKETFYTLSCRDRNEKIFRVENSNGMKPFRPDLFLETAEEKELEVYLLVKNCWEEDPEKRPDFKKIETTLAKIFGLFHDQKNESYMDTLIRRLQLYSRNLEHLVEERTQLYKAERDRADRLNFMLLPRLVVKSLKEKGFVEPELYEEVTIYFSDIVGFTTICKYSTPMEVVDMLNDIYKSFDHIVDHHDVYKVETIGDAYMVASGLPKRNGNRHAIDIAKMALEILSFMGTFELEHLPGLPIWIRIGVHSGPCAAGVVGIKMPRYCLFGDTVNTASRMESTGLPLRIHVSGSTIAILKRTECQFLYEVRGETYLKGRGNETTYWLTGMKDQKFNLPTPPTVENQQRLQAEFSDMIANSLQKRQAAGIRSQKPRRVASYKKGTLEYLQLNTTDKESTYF

As usually defined, the EC50 is the concentration giving half of the maximal effect. Regarding `CC[C@H](C)[C@@H]1NC(=O)[C@H](CCC(=O)O)NC(=O)[C@@H](NC(=O)[C@@H](NC(=O)CNC(=O)[C@@H]2CCCN2)[C@@H](C)O)CSSC[C@@H]2NC(=O)[C@H](C)NC(=O)[C@H](C)NC(=O)[C@H](Cc3ccc(O)cc3)NC(=O)[C@H](C)NC(=O)[C@H](CSSC[C@@H](C(=O)O)NC(=O)CNC(=O)[C@H]([C@@H](C)O)NC2=O)NC1=O` [guanylin] (H-PGTCEICAYAACTGC-OH; disulfide 4-12, 7-15 (inferred); N-terminus and C-terminus assumed), on human GC-C [1], the “level of cGMP previously reported in other cell lines” value is 3.5 pmol/mL. For the same compound, at human GC-C [2] (100 nM guanylin), the “absorbance in cGMP ELISA (reduction corresponds to increased cGMP levels)” value is recorded as “Reduction in absorbance”. Also, the EC50 on human GC-C [2] (30 minutes treatment, 96-well plate, read-out: EC50 value (cGMP response)) amounted to 1.1 nM. In addition, the “level of cGMP” value on human GC-C [2] (produced GC-C-expressing cell line, low concentrations of guanylin) came to 6 pmol/mL.

Turning to `C=C[C@@]1(C)CC(=O)[C@]2(O)[C@@]3(C)[C@@H](O)CCC(C)(C)[C@@H]3[C@H](O)[C@H](OC(C)=O)[C@@]2(C)O1` [forskolin], in the assay with human CFTR, the EC50 came out at 256 nM.

Regarding `CC(C)NCC(O)c1ccc(O)c(O)c1` (stereo not drawn) [isoproterenol], in assay [3], the EC50 fell in the range of 1 to 20 nM.
